Assay results from article PMC11378339, “Design, synthesis, and in vitro and in silico study of 1-benzyl-indole hybrid thiosemicarbazones as competitive tyrosinase inhibitors” (RSC Advances, 2024).

Experiments:
mushroom tyrosinase [1] = experiment: Tyrosinase inhibition assay (96-well, L-DOPA substrate, dopachrome at 480 nm); format: biochemical; details: for IC50: mean ± SEM, triplicate, substrate L-DOPA
Method: Using a spectrophotometer microplate reader, the 96-well plate tyrosinase inhibition experiment was performed by Masamoto et al.'s protocol.[65,66] […] Then, add 60 μL of phosphate buffer and 10 μL of mushroom tyrosinase (30 U mL^−1 in phosphate buffer) to the reaction mixture incubated for 10 min at 25 °C. Following incubation, 20 μL of substrate L-DOPA (0.5 mM) in phosphate buffer was added. The end product dopachrome formation was measured at 480 nm for continues 10 min with one min interval time using 96-well ELISA plate reader (Bio-Rad xMARK microplate spectrophotometer). All of the experiments were carried out in triplicate to account for potential mistakes, and the mean findings were reported in SEM. All of the in vitro experiment results, including % inhibition and IC50 values, were examined using EZ-Fit, an enzyme kinetics tool that fits curves (Perrella Scientific Inc., Amherst, USA).
The % inhibition was computed using the formula provided below.1 [drawing 39]
EZ-FIT (Perrella Scientific, Inc., USA) was used to calculate each tested compound's IC50 value. All the experiments were performed in triplicate to reduce predicted errors, and differences in the outcomes are expressed as Standard Error of Mean values (SEM).2 [drawing 40]

mushroom tyrosinase [2] = experiment: Kinetic analysis of tyrosinase inhibition (Lineweaver-Burk, Dixon plot); format: biochemical; details: substrate L-Dopa 0.1-0.8 mM
Method: Four distinct doses of the substrate L-Dopa 0.1, 0.2, 0.4, and 0.8 mM were used in the kinetic analysis. The in vitro mechanistic study was carried out by following a similar inhibitory procedure with a similar experimental temperature and time period. […]

| Structure (SMILES) | melting point [°C] | Percent inhibition (0.5 mM) (mushroom tyrosinase [1]) [%] | IC50 (mushroom tyrosinase [1]) [µM] | Ki (mushroom tyrosinase [2]) [µM] | type of inhibition (mushroom tyrosinase [2]) |
| --- | --- | --- | --- | --- | --- |
| S=C(NCc1ccccc1)N/N=C/c1cn(Cc2ccccc2)c2ccccc12 [Compound 5i, (E)-N-benzyl-2-[(1-benzyl-1H-indol-3-yl)methylene]hydrazinecarbothioamide] | 193 to 195 | 82.71 | 36.7 ± 1.48 |  |  |
| S=C(NCc1ccc(Cl)cc1)N/N=C/c1cn(Cc2ccccc2)c2ccccc12 [Compound 5e, (E)-2-[(1-benzyl-1H-indol-3-yl)methylene]-N-(4-chlorobenzyl)hydrazinecarbothioamide] | 225 to 227 | 84.73 | 33.6 ± 1.1 |  |  |
| Cc1ccc(CNC(=S)N/N=C/c2cn(Cc3ccccc3)c3ccccc23)cc1 [Compound 5k, (E)-2-[(1-benzyl-1H-indol-3-yl)methylene]-N-(4-methylbenzyl)hydrazinecarbothioamide] | 223 to 225 | 90.84 | 12.4 ± 0.26 | 10.2 ± 0.006 | competitive |
| O=[N+]([O-])c1ccc(NC(=S)N/N=C/c2cn(Cc3ccccc3)c3ccccc23)cc1 [Compound 5q, (E)-2-[(1-benzyl-1H-indol-3-yl)methylene]-N-(4-nitrophenyl)hydrazinecarbothioamide] | 223 to 225 | 91.53 | 15.3 ± 0.3 |  |  |
| S=C(N/N=C/c1cn(Cc2ccccc2)c2ccccc12)Nc1cccc2ccccc12 [Compound 5r, (E)-2-[(1-benzyl-1H-indol-3-yl)methylene]-N-(naphthalen-1-yl)hydrazinecarbothioamide] | 199 to 201 | 77.86 | 34.6 ± 0.81 |  |  |
| COc1ccc(NC(=S)N/N=C/c2cn(Cc3ccccc3)c3ccccc23)cc1 [Compound 5a, (E)-2-[(1-benzyl-1H-indol-3-yl)methylene]-N-(4-methoxyphenyl)hydrazinecarbothioamide] |  | 87.15 | 24.2 ± 0.38 |  |  |
| CNC(=S)N/N=C/c1cn(Cc2ccccc2)c2ccccc12 [Compound 5p, (E)-2-[(1-benzyl-1H-indol-3-yl)methylene]-N-methylhydrazinecarbothioamide] | 220 to 221 | 46.20 |  |  |  |
| S=C(NCCc1ccccc1)N/N=C/c1cn(Cc2ccccc2)c2ccccc12 [Compound 5b, (E)-2-[(1-benzyl-1H-indol-3-yl)methylene]-N-phenethylhydrazinecarbothioamide] | 198 to 201 | 78.35 | 45.4 ± 0.75 |  |  |

The remaining lines, values ahead:

| melting point [°C] | Percent inhibition (0.5 mM) (mushroom tyrosinase [1]) [%] | IC50 (mushroom tyrosinase [1]) [µM] | Ki (mushroom tyrosinase [2]) [µM] | type of inhibition (mushroom tyrosinase [2]) | Structure (SMILES) |
| --- | --- | --- | --- | --- | --- |
|  | 84.39 | 31.6 ± 1.26 |  |  | COc1cccc(NC(=S)N/N=C/c2cn(Cc3ccccc3)c3ccccc23)c1 [Compound 5l, (E)-2-[(1-benzyl-1H-indol-3-yl)methylene]-N-(3-methoxyphenyl)hydrazinecarbothioamide] |
|  | 91.34 | 17.1 ± 0.28 |  |  | O=[N+]([O-])c1cccc(NC(=S)N/N=C/c2cn(Cc3ccccc3)c3ccccc23)c1 [Compound 5o, (E)-2-[(1-benzyl-1H-indol-3-yl)methylene]-N-(3-nitrophenyl)hydrazinecarbothioamide] |
| 213 to 215 | 90.83 | 15.3 ± 0.37 |  |  | S=C(N/N=C/c1cn(Cc2ccccc2)c2ccccc12)Nc1cccc(Cl)c1Cl [Compound 5f, (E)-2-[(1-benzyl-1H-indol-3-yl)methylene]-N-(2,3-dichlorophenyl)hydrazinecarbo thioamide] |
| 221 to 223 | 86.54 | 26.1 ± 0.47 |  |  | Cc1ccc(NC(=S)N/N=C/c2cn(Cc3ccccc3)c3ccccc23)cc1 [Compound 5n, (E)-2-[(1-benzyl-1H-indol-3-yl)methylene]-N-(p-tolyl)hydrazinecarbothioamide] |
| 180 to 182 | 83.76 | 29.7 ± 0.72 |  |  | Cc1ccc(NC(=S)N/N=C/c2cn(Cc3ccccc3)c3ccccc23)c(C)c1 [Compound 5h, (E)-2-[(1-benzyl-1H-indol-3-yl)methylene]-N-(2,4-dimethylphenyl)hydrazinecarbo thioamide] |
|  | 90.47 | 16.8 ± 0.38 |  |  | Fc1ccc(NC(=S)N/N=C/c2cn(Cc3ccccc3)c3ccccc23)cc1 [Compound 5d, (E)-2-[(1-benzyl-1H-indol-3-yl)methylene]-N-(4-fluorophenyl)hydrazinecarbothioamide] |
|  | 85.66 | 27.4 ± 0.6 |  |  | Cc1cccc(C)c1NC(=S)N/N=C/c1cn(Cc2ccccc2)c2ccccc12 [Compound 5c, (E)-2-[(1-benzyl-1H-indol-3-yl)methylene]-N-(2,6-dimethylphenyl)hydrazinecarbo thioamide] |
|  | 84.19 | 26.8 ± 0.29 |  |  | S=C(N/N=C/c1cn(Cc2ccccc2)c2ccccc12)Nc1ccc(Br)cc1 [Compound 5j, (E)-2-[(1-benzyl-1H-indol-3-yl)methylene]-N-(4-bromophenyl)hydrazinecarbothioamide] |
| 221 to 223 | 76.35 | 47.2 ± 1.27 |  |  | Cc1cc(C)cc(NC(=S)N/N=C/c2cn(Cc3ccccc3)c3ccccc23)c1 [Compound 5m, (E)-2-[(1-benzyl-1H-indol-3-yl)methylene]-N-(3,5-dimethylphenyl)hydrazine carbo thioamide] |
|  | 81.47 | 38.3 ± 1.34 |  |  | S=C(N/N=C/c1cn(Cc2ccccc2)c2ccccc12)Nc1ccccc1 [Compound 5g, (E)-2-[(1-benzyl-1H-indol-3-yl)methylene]-N-phenylhydrazinecarbothioamide] |
